Reference: article PMC8599359 (Molecular Neurobiology, 2021)

Tests used:
[1] = system: C3H/HeJ mice pups, hippocampus; assay: Magnetic resonance spectroscopy (1H MRS) of pups; format: in vivo, mouse
Method: After DTI measurements, the same animals were scanned by ^1H MRS to measure metabolite concentrations. N-Acetylaspartate (NAA), total choline (tCho), and total creatine (tCre) were measured in HI region. Animals from both groups, DTG and control, were scanned. SemiLASER localization with timing parameters (TE/TR = 40/4000 ms, 576 averages, 2048 points) was used to obtain MRS data. Voxel was located on HI. All first- and second-order shim terms were automatically adjusted using MAPSHIM® (Bruker, Billerica, MA). A final shim performed manually, if necessary, to achieve a water line width of 10–15 Hz. The water signal was suppressed by variable power radiofrequency (RF) pulses with optimized relaxation delays (VAPOR). MRS data were quantified using LCModel (LCMODEL Inc., CA). Results were expressed as a percentage of the sum of all 3 metabolites as a semi-quantitative method for reporting metabolite concentrations in institutional units (I.U.). Glycerophosphocholine and phosphocholine were added and reported as total choline-containing compounds.

[2] = molecular target: MMP-9 (Homo sapiens, UniProt P14780); assay: Gelatin zymography of medium of PMA-stimulated THP-1 cells; format: cell-based; parameters: endogenous in cells; host or cells: PMA-stimulated THP-1 cells, culture medium; details: 100 µM, 18 h, compared to controls
Chain of MMP-9 (P14780 94-707): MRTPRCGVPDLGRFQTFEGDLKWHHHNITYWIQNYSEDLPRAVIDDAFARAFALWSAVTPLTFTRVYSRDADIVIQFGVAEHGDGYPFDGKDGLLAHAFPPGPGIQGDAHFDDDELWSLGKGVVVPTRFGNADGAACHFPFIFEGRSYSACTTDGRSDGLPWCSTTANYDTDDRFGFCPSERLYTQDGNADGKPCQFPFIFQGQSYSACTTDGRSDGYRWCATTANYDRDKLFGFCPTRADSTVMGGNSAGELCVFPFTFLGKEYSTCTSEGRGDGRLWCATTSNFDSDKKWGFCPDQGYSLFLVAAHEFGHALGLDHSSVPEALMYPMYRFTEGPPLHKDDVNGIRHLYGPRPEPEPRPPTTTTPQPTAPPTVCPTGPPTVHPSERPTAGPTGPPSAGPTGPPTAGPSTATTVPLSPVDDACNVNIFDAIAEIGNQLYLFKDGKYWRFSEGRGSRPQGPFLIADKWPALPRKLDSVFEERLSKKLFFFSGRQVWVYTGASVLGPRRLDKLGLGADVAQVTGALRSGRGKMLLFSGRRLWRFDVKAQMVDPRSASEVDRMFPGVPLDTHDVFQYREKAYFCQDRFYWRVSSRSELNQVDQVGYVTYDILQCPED
Method: (§1) THP-1 cells were plated in 12-well plates at a density of 1 × 10^6 cells per well. First, THP-1 were treated with phorbol-12-myristate-13-acetate (PMA) for 24 h to promote the differentiation of cells into macrophages and stimulate MMP secretion. […] For each treatment, biological triplicate samples were utilized. Following treatment, cell medium was collected from each well and centrifuged at 800 × g for 10 min at 4 °C to remove any cell debris. Collected samples were stored at − 80 °C for further analysis. A 10% SDS–polyacrylamide gel containing 0.1% gelatin was loaded with 3 µg of protein from cell medium for gelatin zymography. In parallel, second 10% SDS–polyacrylamide gel was used to assess equal protein loading. In addition, recombinant human MMP-2 and MMP-9 (10 ng each) were loaded as standards (EMD Millipore, Burlington, MA). Gel ran at 60 V until the loading dye reached the bottom of the gel. After the run, the gelatin gel was washed with water for 15 min and incubated in renaturation buffer [2.5% (v/v) Triton X-100 in Milli-Q water] for 60 min at room temperature. The renaturation buffer was replaced with a fresh renaturation buffer at the interval of 30 min. […] Relative activity of MMPs was measured by quantitating band density by ImageJ software and normalized with respective standard.

[3] = molecular target: T1, MMP-2 (Homo sapiens, UniProt P08253); assay: as above; format: cell-based; details: 100 µM, 18 h, compared to controls
T1 sequence (P08253 110-660): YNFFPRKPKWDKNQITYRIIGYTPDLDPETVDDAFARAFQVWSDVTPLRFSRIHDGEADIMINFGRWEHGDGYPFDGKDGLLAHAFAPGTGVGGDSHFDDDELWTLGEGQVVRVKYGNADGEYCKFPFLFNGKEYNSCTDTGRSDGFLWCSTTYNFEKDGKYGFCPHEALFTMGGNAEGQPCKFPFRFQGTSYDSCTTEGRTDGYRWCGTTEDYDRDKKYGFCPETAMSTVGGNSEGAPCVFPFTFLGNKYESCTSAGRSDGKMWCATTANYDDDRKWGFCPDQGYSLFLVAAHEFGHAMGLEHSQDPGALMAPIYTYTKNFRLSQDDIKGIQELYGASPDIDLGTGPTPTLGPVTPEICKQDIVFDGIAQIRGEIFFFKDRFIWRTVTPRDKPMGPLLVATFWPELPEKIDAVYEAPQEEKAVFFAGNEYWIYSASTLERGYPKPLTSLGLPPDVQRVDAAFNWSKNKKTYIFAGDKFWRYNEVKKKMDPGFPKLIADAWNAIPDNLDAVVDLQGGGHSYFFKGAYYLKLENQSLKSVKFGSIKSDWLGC
Method: as §1

[4] = system: infants born to women receiving DTG at conception; details: cited from earlier work

## C[C@@H]1CCO[C@H]2Cn3cc(C(=O)NCc4ccc(F)cc4F)c(=O)c(O)c3C(=O)N12 [DTG, Dolutegravir]
[1]; PND 28-34, all pups
  NAA levels in hippocampus vs control: significantly reduced
  tCho levels in hippocampus vs control: significant increase
  tCre (internal reference) in hippocampus vs control: No differences
[1]; female pups
  NAA in hippocampus vs control: significantly reduced
[2]
  Relative activity of pro form of MMP-9: significantly decreased
[3]
  Relative activity of pro and active forms of MMP-2: significantly decreased
[4]
  overall clinical prevalence of NTDs among infants born to women receiving DTG at conception: ~ 0.3%
[4]; extended surveillance in Botswana
  risk of NTDs relative to other ARTs at conception: 2–3 times
